Measured values published in patent US7166695B2, “Affinity markers for human serum albumin” (ConjuChem Biotechnologies Inc., priority 1997, dated 2007).
Each block holds one compound with its values, some of them ahead of it. Where a SMILES comes first, the peptide text is derived from it. [ ]: non-standard residue; d: D form. The star is where a group is joined. X1 = O=C1N[C@H]2[C@H](CS[C@H]2CCCCC(=O)Oc2ccc(C(=O)*)cc2)N1; Benzoyl(4-OH) = O=C(c1ccc(O)cc1)*

Experiments:
pig albumin = biological target: T1, pig albumin (Sus scrofa, UniProt P08835); test: Biotinylation of whole blood; SDS-PAGE and immunoblot with peroxidase labeled streptavidin; type: biochemical; details: samples of whole blood
T1 construct: Whole blood was incubated with biotin ester for 1 h at room temperature, then plasma was extracted by centrifugation; from tissue; host or cells: pig whole blood

dog albumin = biological target: T2, dog albumin (Canis lupus familiaris, UniProt P49822); test: as above; type: biochemical; details: samples of whole blood
T2 construct: Whole blood was incubated with biotin ester for 1 h at room temperature, then plasma was extracted by centrifugation; from tissue; host or cells: dog whole blood

HSA [1] = biological target: T3, HSA (Homo sapiens, UniProt P02768); test: Kinetic study by ELISA capture in human plasma; type: biochemical; details: 100 μM in human plasma, RT, 0-60 min
Description: The samples were then allowed to incubate at RT for 0, 5, 10, 15, 30 and 60 min, when 5 μL of each sample was diluted with 295 μL PBS and kept at −20° C. before use. The samples were then diluted to 2 μg/mL using PBS and transferred to an ELISA plate previously coated with polyclonal anti-human serum albumin (procedure described above). The plates were then rinsed with PBS-Tween 20 (0.05%) three times, and then with PBS. Goat polyclonal anti-biotin (Pierce) (1:200, v/v, in PBS containing 0.05% BSA) was then added to the plates, allowed to incubate for 1 h at RT, rinsed with PBS-Tween 20 (0.05%) three times, and then with PBS. The plates were then treated with 100 μL of peroxidase-conjugated rabbit anti-goat IgG (Jackson Immuno Research) diluted 1/100,000 with PBS for 20 min at RT. The plates were then rinsed with PBS-Tween 20 (0.05%) three times, and then with PBS. […] The plates were then read on a SpectraMax 250 at λ 490 nm.
At each time mentioned in the figure, 2 μg/mL of each sample was captured on an ELISA plate initially coated with polyclonal anti-HSA, treated with goat polyclonal anti-biotin, followed by peroxidase conjugated rabbit anti-goat IgG and OD read at 490 nm using SpectraMax 250.

fraction V HSA [2] = biological target: T4, fraction V HSA (Homo sapiens, UniProt P02768); test: Kinetic studies using HPLC, reaction with fraction V HSA in PBS; type: biochemical; details: 100 μM compound and 600 μM HSA in PBS
T4 construct: purchased Calbiochem
Excerpt: (§1) The chromatograms were each integrated using identical data parameters and resulting calculated areas under each peak converted to concentrations and plotted against time.
FIG. 11 plots the rate of disappearance of biotin-OPh-CO—NH2 vs. time and the rate of appearance of the leaving group, HO-Ph-CO—NH2, vs. time.
Due to overlapping peaks in the HPLC chromatogram, the rate of disappearance of biotin-OPh-CO-FlYEE-NH2 cannot be determined.

commercial human plasma = test: Kinetic studies using HPLC, reaction in commercial human plasma; type: biochemical; details: 100 μM in commercial human plasma
Description: as §1
FIG. 12 plots the rate of appearance of the leaving group, HO-Ph-CO-FlYEE-NH2, vs. time (seconds) as a result of the reaction of 100 μM biotin-OPh-CO-FlYEE-NH2 in commercial human plasma. Due to overlapping peaks in the HPLC chromatogram, the rate of disappearance of biotin-OPh-CO-FlYEE-NH2 cannot be determined.

[3] = Hydrolysis in PBS followed by HPLC; type: physicochemical; details: pH 7.4, RT (FIG. 13), read-out: half-life of hydrolysis of the phenol ester (converted)
Excerpt: as §1

fraction V HSA [4] = biological target: T4, fraction V HSA; test: Competition ELISA test; type: binding
Description: A solution of 100 μL rabbit polyclonal anti-human serum albumin. (Boehringer) diluted at 1/5000 in PBS was coated overnight at 4° C. onto ELISA plates (Nunc). These plates were then saturated with 5% BSA (Sigma) in PBS for 2 h at RT. For the competition test, varying concentrations of HO-Ph-CO-FlYEE-NH2, 44 μM biotin-OPh-CO-FlYEE-NH2, and 15 μM of fraction V HSA were incubated for 1 h at 37° C. To assess the ability of biotin-OPh-CO-FlYEE-NH2 to displace HO-Ph-CO-FlYEE-NH2, varying concentrations of HO-Ph-CO-FlYEE-NH2 were incubated with HSA for 1 h at 37° C., then 44 μM of biotin-OPh-CO-FlYEE-NH2 was added and allowed to incubate at 37° C. for 1 h. The reaction mixtures were then centrifuged through 30 kDa Centricon tubes (Sarthorious) to a volume of 50 μL, diluted with 500 μL of PBS, then re-concentrated to 50 μL. This process was then repeated and transferred to the ELISA plate previously coated with polyclonal anti-human serum albumin (procedure described above). These plates were then rinsed with PBS-Tween 20 (0.05%) three times, then with PBS. Peroxidase-labeled streptavidin (1:500, v/v, in PBS containing 0.05% BSA) was then added to the plates, allowed to incubate for 20 min at RT, rinsed with PBS-Tween 20 (0.05%) three times, and then with PBS. […] The plates were then read on a SpectraMax 250 at λ 490 nm.
FIG. 8 plots optical density as a function of the concentration of HO-Ph-CO-FlYEE-NH2. […] The HSA was captured on an ELISA plate initially coated with polyclonal anti-HSA, treated with peroxidase labeled streptavidin and OD read at 490 nm using SpectraMax 250.
In these experiments, solutions of 0 to 50 molar excess HO-Ph-CO-FlYEE-NH2 and 15 μM fraction V HSA were incubated for 1 h at RT when 44 μM of biotin-OPh-CO-FlYEE-NH2, was added and reaction incubated for 1 h at 37° C. The HSA was captured on an ELISA plate initially coated with polyclonal anti-HSA, treated with peroxidase labeled streptavidin and OD read at 490 nm using SpectraMax 250.

HSA [5] = biological target: T3, HSA; test: Mass spectral analysis of tryptic digest of HSA:LC-biotin; details: HPLC peaks at 78 and 85 min
Description: LC-biotin is biotin-NH—(CH2)5—C(O)—.
The specificity with which biotin-OPh-CO-FlYEE-NH2 reacts with a specific lysine residue on HSA was determined by mass spectral analysis of a tryptic digest of LC-biotin conjugated to HSA by LC-biotin-OPh-CO-FlYEE-NH2 (FIG. 15). Using LC -biotin-OPh-CO-FlYEE-NH2 instead of biotin-OPh-CO-FlYEE-NH2 facilitated a larger mass separation in the mass spectrum and identification of HSA from HSA:LC-biotin. […] This mass accounts only for the addition of one LC-biotin and since the fragment at 78 min contains only one Lys residue and LC-biotin is attached to it, and this peptide sequence contains the previous sequence, the only lysine residue in this sequence where biotin could be attached is Lys519.

[6] = biological target: human serum albumin (HSA) (Homo sapiens, UniProt P02768); test: Biotinylation of whole blood, plasma or serum; SDS-PAGE and immunoblot with peroxidase labeled streptavidin; details: 100 or 600 μM, 1 h at 37° C.
Description: The reaction samples were allowed to incubate for 1 h at RT or 37° C. For the whole blood sample, the plasma was extracted from whole blood at the end of reaction. […] These additional samples were diluted 1/60 in PBS and analyzed directly on SDS-PAGE, immunoblot, ELISA, or frozen at −20° C. until use. As positive controls, 50 μM of NHS-LC-biotin (Pierce) and 100 μM of D-biotin were used. Protein assay was performed using BCA kit (Pierce).
Proteins were separated by SDS-PAGE under non-reducing conditions (Laemmli, 1970), transferred to 0.1 μM-pore nitrocellulose sheets (Schleicher and Schuell) and probed with peroxidase labeled streptavidin (Jackson Immuno Research).
Whole blood was incubated with biotin ester for 1 h at room temperature, then plasma was extracted by centrifugation. A 5 μg sample was separated by 8% SDS-PAGE and transferred onto blot. The immunoblot was blocked with 5% skim milk (Nestle) and then incubated with peroxidase labeled-streptavidin diluted at 1/5000 in PBS-BSA 0.5% for 20 min at RT. An ECL kit was used to detect peroxidase labeled-streptavidin on Hyperfilm ECL (Amersham), exposed for 1 min.
A 5 μg portion of each sample was separated by 8% SDS-PAGE and transferred onto blot. The immunoblot was blocked with 5% skim milk (Nestle) and then incubated with peroxidase labeled-streptavidin diluted at 1/5000 in PBS-BSA 0.5% for 20 min at RT. […]

T2 sequence (P49822 25-608): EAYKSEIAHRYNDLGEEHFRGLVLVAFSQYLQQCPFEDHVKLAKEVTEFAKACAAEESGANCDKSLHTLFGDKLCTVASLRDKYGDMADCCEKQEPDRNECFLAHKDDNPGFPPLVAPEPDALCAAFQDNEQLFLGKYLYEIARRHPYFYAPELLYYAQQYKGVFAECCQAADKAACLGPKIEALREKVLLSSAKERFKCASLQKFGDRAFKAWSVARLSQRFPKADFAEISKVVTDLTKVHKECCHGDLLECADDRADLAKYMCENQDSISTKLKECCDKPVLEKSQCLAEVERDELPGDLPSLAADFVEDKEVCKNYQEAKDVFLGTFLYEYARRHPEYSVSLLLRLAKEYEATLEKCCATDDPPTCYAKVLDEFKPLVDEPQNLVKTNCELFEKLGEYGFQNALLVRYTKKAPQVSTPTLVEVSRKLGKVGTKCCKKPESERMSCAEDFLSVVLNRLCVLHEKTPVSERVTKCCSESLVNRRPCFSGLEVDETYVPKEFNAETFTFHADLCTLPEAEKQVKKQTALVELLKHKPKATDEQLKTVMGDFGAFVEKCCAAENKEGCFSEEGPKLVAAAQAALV
T1 sequence (P08835 25-607): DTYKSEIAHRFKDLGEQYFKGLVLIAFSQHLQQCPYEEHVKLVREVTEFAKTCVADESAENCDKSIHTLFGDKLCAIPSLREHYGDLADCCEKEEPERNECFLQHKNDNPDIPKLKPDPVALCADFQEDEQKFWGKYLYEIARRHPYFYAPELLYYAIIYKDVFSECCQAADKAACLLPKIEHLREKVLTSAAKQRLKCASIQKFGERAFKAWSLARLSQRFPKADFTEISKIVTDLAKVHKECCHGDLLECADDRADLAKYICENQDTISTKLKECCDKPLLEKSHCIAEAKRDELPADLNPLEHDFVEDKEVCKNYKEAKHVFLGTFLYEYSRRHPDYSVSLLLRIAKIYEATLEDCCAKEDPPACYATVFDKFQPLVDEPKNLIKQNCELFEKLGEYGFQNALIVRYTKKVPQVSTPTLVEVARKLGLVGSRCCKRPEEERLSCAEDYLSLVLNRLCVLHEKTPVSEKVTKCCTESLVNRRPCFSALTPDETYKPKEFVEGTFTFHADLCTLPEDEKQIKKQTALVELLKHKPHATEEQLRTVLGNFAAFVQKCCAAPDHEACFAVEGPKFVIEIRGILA

specificity of labeling for pig albumin (immunoblot) (pig albumin): not for pig or dog albumin
specificity of labeling for dog albumin (immunoblot) (dog albumin): not for pig or dog albumin
rate of biotin addition (optical density vs time, FIG. 10) (HSA [1]): accelerated rate of biotin addition
half-reaction (fraction V HSA [2]): about 125 min
half-life [3]: ~7.2 days
Compound: CC(C)C[C@@H](NC(=O)[C@H](Cc1ccccc1)NC(=O)c1ccc(OC(=O)CCCC[C@@H]2SC[C@@H]3NC(=O)N[C@@H]32)cc1)C(=O)N[C@@H](Cc1ccc(O)cc1)C(=O)N[C@@H](CCC(=O)O)C(=O)N[C@@H](CCC(=O)O)C(N)=O [biotin-OPh-CO-FlYEE-NH2] (X1-F[dL]YEE-NH2)
half-reaction (commercial human plasma): about 6 min
portion reacted with protein target (commercial human plasma; after five minutes (FIG. 12)): more than half

direct competition with biotin-OPh-CO-FlYEE-NH2 for HSA (FIG. 8) (fraction V HSA [4]; 0-100 molar excess, 44 μM biotin-OPh-CO-FlYEE-NH2, 15 μM HSA, 1 h at 37° C.): occupies a specific binding site on HSA
Compound: HO-Ph-CO-FlYEE-NH2 ({Benzoyl(4-OH)}-F[dL]YEE-NH2) [leaving group liberated from biotin-OPh-CO-FlYEE-NH2]
effect of prior incubation with HSA on binding of biotin-OPh-CO-FlYEE-NH2 (FIG. 9) (fraction V HSA [4]; 0 to 50 molar excess incubated with 15 μM HSA for 1 h, then 44 μM biotin-OPh-CO-FlYEE-NH2 1 h at 37° C.): prevents binding of biotin-OPh-CO-FlYEE-NH2
effect of competition on rate of reaction (fraction V HSA [4]; between 1 to 5 molar excess of HO-Ph-CO-FlYEE-NH2): very minor effect on the rate of reaction

Compound: LC-biotin-OPh-CO-FlYEE-NH2
lysine residue of HSA where LC-biotin is attached (HSA [5]): Lys519

Compound: biotin-OPh-CO—NH2 [reference compound]
rate of biotin addition (optical density vs time, FIG. 10) (HSA [1]): on the base line
half-reaction (fraction V HSA [2]): about 330 min
selectivity of labeling (immunoblot, FIG. 7) [6]: does not label selectively
